From article PMC7473970, “Preformulation Studies of a Stable PTEN-PDZ Lipopeptide Able to Cross an In Vitro Blood-Brain-Barrier Model as a Potential Therapy for Alzheimer’s Disease” (Pharmaceutical Research, 2020)
Like-named read-outs stand apart in the source and are kept apart here. Residues, ends and D or L forms follow the SMILES beside them.

Experiments:
[1] = Permeability across in vitro 2D human blood-brain barrier model; assay type: in vitro ADME
[2] = In vitro stability in 50% v/v mouse plasma; assay type: in vitro ADME; details: 37°C, HPLC-UV 220 nm, one phase decay, least square fit, n = 3; for k: 50% v/v CD-1 mouse plasma (K3 EDTA) in PBS, 120 μL of 5 mM DMSO stock in 1080 μL, 100 rpm, 0-1440 min
Procedure: CD-1 male mice (7 weeks old: Charles River Laboratories) were sacrificed with CO2, and blood was collected in K3E EDTA spray-coated vacutainers and kept on ice prior to centrifugation at 3000 rpm for 15 min at 4°C (Heraeus Multifuge 3sf). Mouse plasma samples were stored at −80°C before use in stability studies. Study was approved by the University of Portsmouth Animal Welfare and Ethical Review Body (UoP AWERB body, 817).
For testing, the plasma was diluted (1:1) in PBS without phenol and pre-warmed to 37°C. Peptides stocks (5 mM in DMSO) were prepared and maintained at −20°C before performing the stability studies. Peptide stock solutions (120 μL) were added to pre-warmed diluted plasma (50% v/v, 1080 μL) and maintained at 37°C with agitation (100 rpm: Grant Aqua Waterbath, Royston, UK). Samples (80 μL) were taken at 0, 3, 6,9, 15, 30, 45, 60, 90, 120, 180, 240, 360 and 1440 min, diluted with ice-cold acetonitrile (80 μL), vortexed and left in −80°C at least overnight to favor maximal protein precipitation. The samples were then vortexed again for 15 min (SciQuip microplate shaker, Shropshire, UK), centrifuged in a Thermo Sci Jouan B4i Centrifuge (Hemel Hampstead, UK) and the supernatant was transferred to an HPLC vial (200 μL).
(§1) The samples were analyzed at 40°C on a Phenomenex Lichrosorb RP8 C8 column (4.0 mm × 250 mm, 5 μm), using the gradient elution method on an Agilent HPLC system (Agilent Technologies, Cheadle, UK) equipped with an 1100 series degasser, quaternary pump, autosampler, and column heater, and attached to an Agilent 1200 series PDA detector and a 1250 series fluorescent detector. The flow rate was set at 1.2 mL min^-1, and the injection volume was set at 40 μL, while detection was performed at 220 nm. The mobile phase was a mixture of mobile phase A (0.1% TFA in water) and phase B (0.08% TFA in acetonitrile), and in the first 5 min, the mobile phase was an 8:2 ratio of A:B (v/v) and from 5 to 15 min the percentage of B was raised from 8:2 to 1:9 (v/v). Linear calibration curves were constructed for both peptides between 0.1–100 μg.mL^−1. The retention time for the human Lau–PTEN-PDZ, mouse Lau–PTEN-PDZ, human Myr–PTEN-PDZ, and mouse Myr–PTEN-PDZ was 12.03, 11.60, 13.68, and 13.91, respectively.

[3] = In vitro stability in simulated intestinal fluid (mouse intestinal wash); assay type: in vitro ADME; details: 120 μL of 5 mM DMSO stock in 1080 μL, 37°C, 0-1440 min, HPLC-UV 220 nm, n = 3; for k: Simulated intestinal fluid = undiluted pooled CD-1 mouse duodenum/ileum wash in 50 mM phosphate buffer pH 6.63, 100 rpm, one phase decay, least square fit; for t1/2 (h) / t1/2 (min): Simulated intestinal fluid = undiluted pooled CD-1 mouse duodenum/ileum wash, phosphate buffer pH 6.63, one phase decay fit
Procedure: as §1
The duodenum and ileum were excised from 10 non-fasted CD-1 male mice (7 weeks-old: Charles River Laboratories) that were sacrificed with CO2. Each duodenum and ileum were washed with 6 ml of phosphate buffer (50 mM, pH 6.63), and all the washes were pooled prior to centrifugation at 4000 rpm for 15 min at 4°C (Heraeus Multifuge 3sf) ([7],[15]). The intestinal wash was removed and frozen at −80°C prior to using it in stability studies without further dilution. Peptides stocks (5 mM in DMSO) were prepared and maintained at −20°C prior to performing stability studies. A stock peptide solution (120 μL) was added to the diluted pre-warmed (37°C) intestinal wash (1080 μL) with agitation at 100 rpm (Grant Aqua Waterbath), and samples (80 μL) were taken at 0, 15, 30, 45, 60, 90, 120, 180, 240, 360 and 1440 min, and diluted with ice-cold glacial acetic acid (17.5 M): acetonitrile (5:95 v/v, 80 μL) to quench the enzyme activity. Samples were vortexed and left in −80°C at least overnight to maximize protein precipitation, and after vortexing again for 15 min and centrifuging, the supernatant was analyzed by HPLC as described above.

[4] = In vitro stability in 50% brain homogenate; assay type: in vitro ADME, mouse; details: 37°C, HPLC-UV 220 nm, one phase decay, least square fit, n = 3; for k: 50% w/v CD-1 mouse brain homogenate in PBS pH 7.4, 120 μL of 5 mM DMSO stock in 1080 μL, 100 rpm, 0-1440 min; for t1/2 (h) / t1/2 (min): 50% w/v mouse brain homogenate in PBS pH 7.4
Procedure: as §1
(§2) The liver and brain of the mice were excised from […] CD-1 male mice (7 weeks-old: Charles River Laboratories) sacrificed with CO2, and the tissue was frozen immediately with liquid nitrogen prior to storage at −80°C. The liver and brain tissue were thawed and homogenized on ice in PBS (2 mL/g of tissue) using a glass 3 mL tissue homogenizer (20 strokes per sample), and the liver and brain homogenates were centrifuged (Heraeus Multifuge 3sf, Fisher Scientific, Basingstoke, UK) at 4300 g for 60 min at 4°C and at 3000 g for 20 min at 4°C, respectively. The supernatant was stored at −80°C, diluted 1:1 (v/v) with PBS (1x, pH 7.4), and used in stability studies. Peptides stocks (5 mM in DMSO) were prepared and maintained at −20°C prior to performing stability studies. These stock solutions (120 μL) were added to the diluted pre-warmed (37°C) liver or brain homogenate (50% v/v, 1080 μL) with agitation (100 rpm: Grant Aqua Waterbath), and samples (80 μL) were taken at 0, 5, 10, 15, 30, 45, 60, 90, 120, 180, 240, 360 and 1440 min, and diluted with ice-cold acetonitrile (80 μL). Samples were vortexed and left at −80°C at least overnight to allow for maximum protein precipitation, the samples were vortexed again for 15 min, centrifuged and the supernatant was analyzed by HPLC as described above.
(§3) The total protein concentration in the homogenates was determined using the Bradford protein assay ([7],[15]) and BSA as a standard. Ten stock solutions of BSA were prepared in PBS between 0.1–1 mg mL^−1, and 40 μL of each of the diluted stocks were added to 1.2 mL of Bradford reagent and incubated at room temperature for 5 min. The absorbance was recorded at 595 nm using a Multiskan GO spectrophotometer and the SkanIt software (Thermo Scientific, Paisley, UK). A linear calibration curve was obtained in this range that was used to extrapolate the protein content of 1:100 v/v stock solutions of 50% mouse plasma, liver, and brain homogenates diluted in PBS.

[5] = In vitro stability in 50% liver homogenate; assay type: in vitro ADME, mouse; details: 37°C; for k: 50% w/v CD-1 mouse liver homogenate in PBS pH 7.4, 120 μL of 5 mM DMSO stock in 1080 μL, 100 rpm, 0-1440 min; for k / t1/2 (h) / t1/2 (min): HPLC-UV 220 nm, one phase decay, least square fit, n = 3; for t1/2 (h) / t1/2 (min): 50% w/v mouse liver homogenate in PBS pH 7.4
Procedure: as §1, §2, §3

[6] = read-out: Papp0-4h, Experiment 2
[7] = 50% w/v mouse liver homogenate, two phase decay fit, fast phase
[8] = 50% w/v mouse liver homogenate, two phase decay fit, slow phase

CCCCCCCCCCCC(=O)N[C@@H](CCC(N)=O)C(=O)N[C@@H](Cc1c[nH]cn1)C(=O)N[C@H](C(=O)N[C@@H](CCC(N)=O)C(=O)N[C@H](C(=O)N[C@H](C(=O)N[C@@H](CCCCN)C(=O)N[C@H](C(=O)O)C(C)C)[C@@H](C)O)[C@@H](C)CC)[C@@H](C)O [Human Lau-PTEN-PDZ] (HELM PEPTIDE1{[CCCCCCCCCCCC(=O)[*:2]].Q.H.T.Q.I.T.K.V}$$$$V2.0)
Papp A→B at 100 μM [1, 6]: 5.57 ± 0.29 ×10⁻⁶ cm/s | k [2]: 4.60 h⁻¹ | t1/2 (h) ([2]; 50% v/v mouse plasma in PBS): 0.15 h | t1/2 (min) ([2]; 50% v/v mouse plasma in PBS): 9.05 min | k [3]: 0.23 h⁻¹ | t1/2 (h) [3]: 2.96 h | t1/2 (min) [3]: 177.96 min | k [4]: 1.90 h⁻¹ | t1/2 (h) [4]: 0.36 h | t1/2 (min) [4]: 21.87 min | k [5]: 1.15 h⁻¹ | t1/2 (h) [5]: 0.60 h | t1/2 (min) [5]: 36.28 min

CCCCCCCCCCCCCC(=O)N[C@@H](CCC(N)=O)C(=O)N[C@@H](Cc1c[nH]cn1)C(=O)N[C@H](C(=O)N[C@@H](CCC(N)=O)C(=O)N[C@H](C(=O)N[C@H](C(=O)N[C@@H](CCCCN)C(=O)N[C@H](C(=O)O)C(C)C)[C@@H](C)O)[C@@H](C)CC)[C@@H](C)O [Human Myr-PTEN-PDZ] (HELM PEPTIDE1{[CCCCCCCCCCCCCC(=O)[*:2]].Q.H.T.Q.I.T.K.V}$$$$V2.0)
Papp A→B at 100 μM [1, 6]: 3.77 ± 0.39 ×10⁻⁶ cm/s | k [2]: 6.17 h⁻¹ | t1/2 (h) ([2]; 50% v/v mouse plasma in PBS): 0.11 h | t1/2 (min) ([2]; 50% v/v mouse plasma in PBS): 6.74 min | k [3]: 0.25 h⁻¹ | k [4]: 4.20 h⁻¹ | t1/2 (h) [4]: 0.16 h | t1/2 (min) [4]: 9.89 min | k [5]: 0.04 h⁻¹ | t1/2 (h) [5]: 18.5 h | t1/2 (min) [5]: 1110 min | k (fast) [5, 7]: 3.05 h⁻¹ | t1/2 (h) fast [5, 7]: 0.23 h | t1/2 (min) fast [5, 7]: 13.63 min | k (slow) [5, 8]: 0.0005 h⁻¹ | t1/2 (h) slow [5, 8]: 1510 h | t1/2 (min) slow [5, 8]: 90,600 min

CCCCCCCCCCCC(=O)N[C@@H](CCC(N)=O)C(=O)N[C@@H](Cc1c[nH]cn1)C(=O)N[C@@H](CO)C(=O)N[C@@H](CCC(N)=O)C(=O)N[C@H](C(=O)N[C@H](C(=O)N[C@@H](CCCCN)C(=O)N[C@H](C(=O)O)C(C)C)[C@@H](C)O)[C@@H](C)CC [Mouse Lau-PTEN-PDZ] (HELM PEPTIDE1{[CCCCCCCCCCCC(=O)[*:2]].Q.H.S.Q.I.T.K.V}$$$$V2.0)
Papp A→B at 100 μM ([1]; read-out: Papp0-4h, Experiment 1): 6.28 ± 1.85 ×10⁻⁶ cm/s | k [2]: 0.12 h⁻¹ | t1/2 (h) ([2]; 50% v/v mouse plasma in PBS): 5.86 h | t1/2 (min) ([2]; 50% v/v mouse plasma in PBS): 351.84 min | half-life at 0.5 mM ([2]; male, CD-1, 50% v/v mouse plasma (K3 EDTA) diluted in PBS, 50% v/v mouse plasma in PBS): 354 min | k [3]: 2.34 h⁻¹ | t1/2 (h) [3]: 0.30 h | t1/2 (min) [3]: 17.77 min | k [4]: 3.48 h⁻¹ | t1/2 (h) [4]: 0.20 h | t1/2 (min) [4]: 11.95 min | k [5]: 0.73 h⁻¹ | t1/2 (h) [5]: 0.95 h | t1/2 (min) [5]: 57.14 min
